Assay results reported in ChEMBL document CHEMBL4622963, “Optimization of Nicotinamides as Potent and Selective IRAK4 Inhibitors with Efficacy in a Murine Model of Psoriasis” (ACS Med Chem Lett, 2020).

Key:
[1] = Drug uptake in imiquimod-induced C57BL/6 mouse model of psoriasis at 0.3 mg/kg, po dosed via gavage twice daily and measured after 2 hrs by LC-MS analysis; assay type: ADME, organism-based; details: in vivo, read-out: Drug uptake
[2] = molecular target: T1, Tyrosine-protein kinase receptor TYRO3 (Homo sapiens, UniProt Q06418); test: Inhibition of human wild type partial length TYRO3 (497 to 814 residues) expressed in bacterial expression system
T1 sequence (Q06418 whole entry): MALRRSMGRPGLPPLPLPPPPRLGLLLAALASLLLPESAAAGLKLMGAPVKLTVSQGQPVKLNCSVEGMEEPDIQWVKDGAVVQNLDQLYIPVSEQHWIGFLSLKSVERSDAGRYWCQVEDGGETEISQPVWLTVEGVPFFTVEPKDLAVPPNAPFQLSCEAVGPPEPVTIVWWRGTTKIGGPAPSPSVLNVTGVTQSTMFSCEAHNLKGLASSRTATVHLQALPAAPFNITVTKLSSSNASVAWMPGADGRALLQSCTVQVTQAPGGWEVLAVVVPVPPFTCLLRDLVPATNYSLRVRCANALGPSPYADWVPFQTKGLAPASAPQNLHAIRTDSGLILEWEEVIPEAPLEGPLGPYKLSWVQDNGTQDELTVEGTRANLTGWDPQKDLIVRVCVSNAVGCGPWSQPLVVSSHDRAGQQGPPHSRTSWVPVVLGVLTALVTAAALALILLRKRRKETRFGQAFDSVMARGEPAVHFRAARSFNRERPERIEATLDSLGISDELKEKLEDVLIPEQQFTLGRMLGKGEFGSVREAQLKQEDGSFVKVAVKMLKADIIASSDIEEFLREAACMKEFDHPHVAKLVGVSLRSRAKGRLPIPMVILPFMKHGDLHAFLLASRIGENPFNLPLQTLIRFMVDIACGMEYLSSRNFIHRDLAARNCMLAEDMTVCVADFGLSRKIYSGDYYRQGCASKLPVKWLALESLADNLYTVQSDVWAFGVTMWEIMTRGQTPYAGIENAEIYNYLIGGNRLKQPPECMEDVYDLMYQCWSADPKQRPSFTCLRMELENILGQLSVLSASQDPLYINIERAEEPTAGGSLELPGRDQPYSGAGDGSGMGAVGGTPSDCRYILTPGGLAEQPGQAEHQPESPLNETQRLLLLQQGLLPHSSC

Mus musculus [3] = test: Protection against po dosed imiquimod-induced psoriasis in C57BL/6 mouse assessed as reduction in clinical signs of psoriasis administered via gavage twice daily and measured on day 6; assay type: functional, organism-based
Homo sapiens [4] = species: Homo sapiens; test: Selectivity index, ratio of IC50 for recombinant N-terminal GST-tagged human cKit (544 to end residues) expressed in baculovirus infected Sf21 cells to IC50 for IRAK4 (unknown origin)
[5] = molecular target: T2, Interleukin-1 receptor-associated kinase 4 (Mus musculus) (UniProt Q8R4K2); test: In vivo Inhibition of IRAK4 in LTA-treated BALB/c mouse assessed as suppression of IL-6 level in serum at 3 mg/kg by ELISA relative to control; assay type: functional, organism-based
T2 sequence (whole entry): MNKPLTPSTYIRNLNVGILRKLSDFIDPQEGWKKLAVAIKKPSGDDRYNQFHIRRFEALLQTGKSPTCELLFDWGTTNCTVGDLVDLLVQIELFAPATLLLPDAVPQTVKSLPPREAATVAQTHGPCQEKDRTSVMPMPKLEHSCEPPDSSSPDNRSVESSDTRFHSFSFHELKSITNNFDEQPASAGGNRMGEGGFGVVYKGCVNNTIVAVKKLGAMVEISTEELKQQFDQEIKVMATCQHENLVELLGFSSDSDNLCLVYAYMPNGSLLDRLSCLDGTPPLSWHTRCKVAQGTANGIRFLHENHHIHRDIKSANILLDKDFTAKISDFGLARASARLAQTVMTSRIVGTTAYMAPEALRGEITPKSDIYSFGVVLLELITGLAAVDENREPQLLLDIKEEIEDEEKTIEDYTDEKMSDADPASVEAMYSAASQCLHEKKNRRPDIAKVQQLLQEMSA

Mus musculus [6] = species: Mus musculus; test: animal or person; details: C57BL/6, po, 144 h, read-out: INH
Homo sapiens [7] = species: Homo sapiens; test: Selectivity index, ratio of IC50 for N-terminal His6-tagged human full length recombinant LCK expressed in baculovirus infected Sf21 cells to IC50 for IRAK4 (unknown origin)
[8] = molecular target: T3, Interleukin-1 receptor-associated kinase 3 (Homo sapiens, UniProt Q9Y616); test: Inhibition of human wild type partial length IRAK3 (147 to 596 residues) expressed in bacterial expression system
T3 sequence (Q9Y616 whole entry): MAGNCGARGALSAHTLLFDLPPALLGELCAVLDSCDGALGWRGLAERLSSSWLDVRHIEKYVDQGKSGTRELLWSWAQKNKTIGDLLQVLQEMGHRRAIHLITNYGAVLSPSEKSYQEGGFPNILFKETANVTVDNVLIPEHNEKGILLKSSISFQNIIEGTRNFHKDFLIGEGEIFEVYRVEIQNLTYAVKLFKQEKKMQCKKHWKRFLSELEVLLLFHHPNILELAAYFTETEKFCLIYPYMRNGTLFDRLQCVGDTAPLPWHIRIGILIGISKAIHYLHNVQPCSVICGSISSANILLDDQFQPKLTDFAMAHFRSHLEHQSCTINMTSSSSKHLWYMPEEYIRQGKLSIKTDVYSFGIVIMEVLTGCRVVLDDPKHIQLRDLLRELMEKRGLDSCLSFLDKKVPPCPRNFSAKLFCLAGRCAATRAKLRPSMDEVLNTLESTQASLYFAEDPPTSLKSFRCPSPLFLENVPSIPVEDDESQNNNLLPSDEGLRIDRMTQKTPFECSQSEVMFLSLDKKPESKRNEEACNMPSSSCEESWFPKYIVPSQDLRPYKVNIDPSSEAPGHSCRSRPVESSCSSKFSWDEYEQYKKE

[9] = Clearance in mouse at 2 mg/kg, iv administered as infusion or 5 mg/kg, po via gavage measured up to 24 hrs by LC-MS analysis; assay type: ADME, organism-based; details: in vivo
[10] = Drug uptake in imiquimod-induced C57BL/6 mouse model of psoriasis at 3 mg/kg, po dosed via gavage twice daily and measured after 2 hrs by LC-MS analysis; assay type: ADME, organism-based; details: in vivo, read-out: Drug uptake
[11] = Drug uptake in imiquimod-induced C57BL/6 mouse model of psoriasis at 1 mg/kg, po dosed via gavage twice daily and measured after 2 hrs by LC-MS analysis; assay type: ADME, organism-based; details: in vivo, read-out: Drug uptake
[12] = Drug uptake in imiquimod-induced C57BL/6 mouse model of psoriasis at 3 mg/kg, po dosed via gavage twice daily and measured after 8 hrs by LC-MS analysis; assay type: ADME, organism-based; details: in vivo, read-out: Drug uptake

Which concentration at 2 h [1] does the source give for `CC(C)Nc1cc(Nc2nc3ccnn3cc2F)ncc1C(=O)NC[C@@H](F)C(C)(C)O` here?
The concentration at 2 h was 42 nM.

And the IC50 [2]?
Its IC50 is 980 nM.

What about the Activity (Mus musculus [3]) of the same compound?
Its Activity is “Dose-dependent effect”.

And the Ratio IC50 (Homo sapiens [4])?
Its Ratio IC50 is greater than 590.

What about the inhibition [5] of the same compound?
The inhibition was 87%.

And the inhibition in vivo at 3 mg/kg (Mus musculus [6])?
Its inhibition in vivo at 3 mg/kg is 41%.

What about the Ratio IC50 (Homo sapiens [7]) of the same compound?
Its Ratio IC50 is greater than 590.

And the IC50 [8]?
Its IC50 is 760 nM.

And the clearance [9]?
The clearance was 15 mL/min/kg.

And the concentration at 2 h [10]?
Its concentration at 2 h is 1950 nM.

And the concentration at 2 h [11]?
Its concentration at 2 h is 400 nM.

And the concentration at 8 h [12]?
The concentration at 8 h was 31 nM.
